This is an account of results in ChEMBL document CHEMBL1137263, “Replacing the cyclohexene-linker of FR181157 leading to novel IP receptor agonists: orally active prostacyclin mimetics. Part 6” (Bioorg Med Chem Lett, 2006).

As usually defined, the Cmax is the highest concentration seen after dosing. As usually defined, the AUC is concentration integrated over time. A high value points to more exposure. The term bioavailability denotes the share of a dose that reaches the circulation, judged against a reference dose that is usually intravenous. What is called Ki is the dissociation constant of the complex between target and ligand, obtained from inhibition or displacement. Read a high Ki as a looser hold on the target.

The nature of data set [1]: Cmax in rat at 1 mg/kg, po. It is filed as ADME, organism-based. Particulars: in vivo. Further details: dose 1 mg/kg, route oral.
A short description of data set [2]: AUC in rat at 1 mg/kg, po. It is filed as ADME, organism-based. Also noted: dose 1 mg/kg, route oral. The conditions noted are these: plasma.
Data set [3] can be described thus: Oral bioavailability in rat. It is filed as ADME, organism-based. Particulars: in vivo.
For data set [4], the target named is Prostacyclin receptor (Homo sapiens, UniProt P43119). Kind of data set: Displacement of [3H]iloprost from cloned human PGI2 receptor.
Chain of Prostacyclin receptor (P43119 whole entry): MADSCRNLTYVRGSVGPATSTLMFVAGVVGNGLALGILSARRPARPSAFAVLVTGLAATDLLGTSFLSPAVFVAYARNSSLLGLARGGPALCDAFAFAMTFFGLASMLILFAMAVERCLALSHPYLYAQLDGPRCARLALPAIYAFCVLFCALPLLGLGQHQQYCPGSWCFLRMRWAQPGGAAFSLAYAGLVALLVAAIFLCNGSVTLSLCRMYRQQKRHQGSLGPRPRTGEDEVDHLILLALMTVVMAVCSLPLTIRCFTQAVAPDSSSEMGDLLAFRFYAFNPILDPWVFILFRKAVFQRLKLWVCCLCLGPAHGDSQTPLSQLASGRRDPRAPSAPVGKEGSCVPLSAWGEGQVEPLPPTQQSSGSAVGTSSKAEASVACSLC

Regarding `Cl.O=C(O)COc1cccc(CN2CCC[C@@H]2c2nc(-c3ccccc3)c(-c3ccccc3)o2)c1`, in data set [1], the peak concentration (Cmax) was determined as 15.5 ng/mL. Also, in data set [2], the AUC is 81.7 ng·h/mL. Besides, in data set [3], the bioavailability came out at 41%.

`O=C([O-])COc1cccc(C[C@@H]2CCCC=C2c2nc(-c3ccccc3)c(-c3ccccc3)o2)c1.[Na+]` came in with a bioavailability in data set [3] of 50%. The inhibition constant (Ki) in data set [4] was 60 nM.

As for `O=C(O)COc1cccc(CN2CCC[C@@H]2c2nc(-c3ccccc3)c(-c3ccccc3)o2)c1`, the Ki in data set [4] is 76 nM.
